Experimental data from PubChem BioAssay AID256 (DTP/NCI, 2004).
Values joined by “and” are separate entries in the source; they are usually repeats but may differ in a detail not shown here. Identical values can stand only once. Inconclusive results and toxic doses are left out.

System: CD2F1 mice, L1210 leukemia ip, survival T/C
Assay: NCI In Vivo Anticancer Drug Screen. Data for tumor model L1210 Leukemia (intraperitoneal) in CD2F1 (CDF1) mice
Conditions: higher = longer survival
Summary of the method: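 Antitumor effect is scored in animals hosting a serially transplanted tumor. Values compare compound-dosed animals against vehicle-only controls as a simple quotient.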

[1] = endpoint: mean survival time, dose: 100.0 mg/kg/injection, schedule: Q04DX002 (ip), vehicle: saline with Tween-80
[2] = endpoint: mean survival time, dose: 200.0 mg/kg/injection, schedule: Q04DX002 (ip), vehicle: saline with Tween-80
[3] = endpoint: mean survival time, dose: 100.0 mg/kg/injection, schedule: Q01DX009 (ip), vehicle: saline with Tween-80
[4] = endpoint: mean survival time, dose: 200.0 mg/kg/injection, schedule: Q01DX009 (ip), vehicle: saline with Tween-80

SMILES: COc1cccnc1/C=N/NC(N)=S
- T/C (endpoint: mean survival time, dose: 3.13 mg/kg/injection, schedule: Q01DX009 (ip), vehicle: saline with Tween-80): 118 % of control
- T/C (endpoint: mean survival time, dose: 5.54 mg/kg/injection, schedule: Q01DX001 (ip), vehicle: saline with Tween-80): 103 % of control
- T/C (endpoint: mean survival time, dose: 5.54 mg/kg/injection, schedule: Q01DX009 (ip), vehicle: saline with Tween-80): 200 % of control
- T/C (endpoint: mean survival time, dose: 5.54 mg/kg/injection, schedule: Q04DX001 (ip), vehicle: saline with Tween-80): 102 % of control
- T/C (endpoint: mean survival time, dose: 6.25 mg/kg/injection, schedule: Q04DX002 (ip), vehicle: saline with Tween-80): 104 % of control
- T/C (endpoint: mean survival time, dose: 8.32 mg/kg/injection, schedule: Q01DX001 (ip), vehicle: saline with Tween-80): 105 % of control
- T/C (endpoint: mean survival time, dose: 8.32 mg/kg/injection, schedule: Q01DX009 (ip), vehicle: saline with Tween-80): 162 % of control
- T/C (endpoint: mean survival time, dose: 8.32 mg/kg/injection, schedule: Q04DX001 (ip), vehicle: saline with Tween-80): 105 % of control
- T/C (endpoint: mean survival time, dose: 12.5 mg/kg/injection, schedule: Q01DX001 (ip), vehicle: saline with Tween-80): 109 % of control
- T/C (endpoint: mean survival time, dose: 12.5 mg/kg/injection, schedule: Q01DX009 (ip), vehicle: saline with Tween-80): 152 % of control
- T/C (endpoint: mean survival time, dose: 12.5 mg/kg/injection, schedule: Q04DX001 (ip), vehicle: saline with Tween-80): 111 % of control
- T/C (endpoint: mean survival time, dose: 12.5 mg/kg/injection, schedule: Q04DX002 (ip), vehicle: saline with Tween-80): 104 % of control
- T/C (endpoint: mean survival time, dose: 18.8 mg/kg/injection, schedule: Q01DX001 (ip), vehicle: saline with Tween-80): 109 % of control
- T/C (endpoint: mean survival time, dose: 18.8 mg/kg/injection, schedule: Q04DX001 (ip), vehicle: saline with Tween-80): 105 % of control

SMILES: CNc1nc(N)[nH]c(=O)c1N=O
- T/C (endpoint: mean survival time, dose: 50.0 mg/kg/injection, schedule: Q04DX002 (ip), vehicle: saline with Tween-80): 105 % of control
- T/C [1]: 102 % of control
- T/C [2]: 105 % of control

SMILES: N#Cc1c(N)[nH]c2ccc(Sc3ccccc3)cc12
- T/C (endpoint: median survival time, dose: 6.25 mg/kg/injection, schedule: Q01DX005 (ip), vehicle: saline with Tween-80): 108 % of control
- T/C (endpoint: median survival time, dose: 12.5 mg/kg/injection, schedule: Q01DX005 (ip), vehicle: saline with Tween-80): 101 % of control and 109 % of control
- T/C (endpoint: median survival time, dose: 25.0 mg/kg/injection, schedule: Q01DX005 (ip), vehicle: saline with Tween-80): 102 % of control and 112 % of control
- T/C (endpoint: median survival time, dose: 43.0 mg/kg/injection, schedule: Q01DX005 (ip), vehicle: saline with Tween-80): 112 % of control
- T/C (endpoint: median survival time, dose: 43.2 mg/kg/injection, schedule: Q01DX005 (ip), vehicle: saline with Tween-80): 117 % of control
- T/C (endpoint: median survival time, dose: 50.0 mg/kg/injection, schedule: Q01DX005 (ip), vehicle: saline with Tween-80): 123 % of control and 110 % of control
- T/C (endpoint: median survival time, dose: 100.0 mg/kg/injection, schedule: Q01DX005 (ip), vehicle: saline with Tween-80): 101 % of control
- T/C (endpoint: median survival time, dose: 120.0 mg/kg/injection, schedule: Q01DX005 (ip), vehicle: saline with Tween-80): 153 % of control and 164 % of control

SMILES: OCc1ccc(Cl)cc1Cl
- T/C [3]: 93 % of control
- T/C [4]: 92 % of control

SMILES: CCC1(C)N=C(C)C(C)S1 (configuration not stated)
- T/C [3]: 89 % of control
- T/C [4]: 100 % of control
- T/C (endpoint: mean survival time, dose: 400.0 mg/kg/injection, schedule: Q01DX009 (ip), vehicle: saline with Tween-80): 91 % of control

SMILES: O=S(=O)(Cc1cc(-c2ccccc2)n[nH]1)c1ccccc1
- T/C (endpoint: mean survival time, dose: 100.0 mg/kg/injection, schedule: Q01DX001 (ip), vehicle: saline): 96 % of control
- T/C (endpoint: mean survival time, dose: 200.0 mg/kg/injection, schedule: Q01DX001 (ip), vehicle: saline): 95 % of control
- T/C (endpoint: mean survival time, dose: 400.0 mg/kg/injection, schedule: Q01DX001 (ip), vehicle: saline): 98 % of control

SMILES: O=C(O)CN(CC(=O)O)C1CCCCC1N(CC(=O)O)CC(=O)O.[Cl][Pd][Cl] (configuration not stated)
- T/C (endpoint: median survival time, dose: 10.0 mg/kg/injection, schedule: Q04DX003 (ip), vehicle: saline): 103 % of control
- T/C (endpoint: median survival time, dose: 20.0 mg/kg/injection, schedule: Q04DX003 (ip), vehicle: saline): 100 % of control
- T/C (endpoint: median survival time, dose: 40.0 mg/kg/injection, schedule: Q04DX003 (ip), vehicle: saline): 103 % of control
- T/C (endpoint: median survival time, dose: 80.0 mg/kg/injection, schedule: Q04DX003 (ip), vehicle: saline): 103 % of control and 106 % of control
- T/C (endpoint: median survival time, dose: 160.0 mg/kg/injection, schedule: Q04DX003 (ip), vehicle: saline): 98 % of control

SMILES: CCOc1cc(C)cc(C(=O)O)c1
- T/C [1]: 97 % of control
- T/C [2]: 90 % of control
- T/C (endpoint: mean survival time, dose: 400.0 mg/kg/injection, schedule: Q04DX002 (ip), vehicle: saline with Tween-80): 97 % of control

SMILES: NC(Cc1ccc([N+](=O)[O-])cc1)C(=O)O (configuration not stated)
- T/C (endpoint: mean survival time, dose: 100.0 mg/kg/injection, schedule: Q01DX009 (ip), vehicle: saline): 96 % of control
- T/C (endpoint: mean survival time, dose: 100.0 mg/kg/injection, schedule: Q04DX003 (ip), vehicle: saline): 97 % of control
- T/C (endpoint: mean survival time, dose: 200.0 mg/kg/injection, schedule: Q01DX009 (ip), vehicle: saline): 98 % of control
- T/C (endpoint: mean survival time, dose: 200.0 mg/kg/injection, schedule: Q04DX003 (ip), vehicle: saline): 100 % of control
- T/C (endpoint: mean survival time, dose: 400.0 mg/kg/injection, schedule: Q01DX009 (ip), vehicle: saline): 94 % of control
- T/C (endpoint: mean survival time, dose: 400.0 mg/kg/injection, schedule: Q04DX003 (ip), vehicle: saline): 103 % of control
